# Measurements published in US12409183B2, “Method of using iloprost for treating frostbite” (BTG INTERNATIONAL INC., priority 2023, dated 2025).
# Read-outs that look alike come from different tables or passages of the source.
# Assays:
# severe frostbite [1] = assay: systematic literature review and meta-analysis of amputation rates in severe frostbite; format: in vivo, human
# Protocol: Frostbite is an injury caused by exposure of tissue to freezing temperatures. Severe frostbite may result in amputation leading to considerable morbidity. The objective was to identify and synthesize, via systematic literature review and meta-analysis (MA), evidence published on patient-level historical amputation rates in adults with severe frostbite treated with and without iloprost.
# Methods: The literature review was conducted using Preferred Reporting Items for Systematic Reviews and Meta-Analyses (PRISMA) guidelines. It identified English-language articles published from Jan. 1, 2000 to Jul. 31, 2022 reporting amputation rates associated with iloprost and standard of care (SoC) treatments in severe frostbite. Study designs of interest were clinical trials (randomized and single arm), observational studies, and case series with at least 10 patients. MAs of proportions of patients with amputation were conducted. The published studies considered for the MA include:
# Determination of Risk of Amputation: Table 1 discloses the historical amputation rates in severe frostbite patients. The studies listed in Table 1 was the basis of MA for determining the historical risk of amputation.
# Sensitivity analyses reflect several ways of deriving the data (amputation rate for grade 3-4 frostbite) from the supplemental table in Cauchy 2011 (Cauchy et al., 2011).
# Efficacy Proportion of Digits with Amputation: Data from 2 studies reporting the proportion of digits with amputations after receiving iloprost versus SoC for Grade 3/4 frostbite were included in the meta-analysis.
# [2] = IV bag solution stability of fully diluted ready-to-use iloprost (HPLC); format: physicochemical; conditions: condition ia, 25° C./60% RH study; Table 1A
# Protocol: Iloprost 100 μg/mL injection product is administered to patients by IV bag infusion over a period of six hours. The fully diluted ready to use iloprost is prepared in pharmacy cleanroom using sterile preparation standards (USP Chapter <797>) by pharmacy trained and licensed staff. The fully diluted ready to use drug product may be prepared several hours ahead of treatment with storage at ambient conditions or several days ahead of treatment with storage at refrigerated (2-8° C.) conditions. […] The bags are then manually mixed gently to provide a uniform solution. Administration IV bags were prepared and stored at several conditions with routine sampling for assay testing for stability under i) 25° C./60% RH, ii) 5° C. for 5 days to 25° C./60% RH, iii) 5° C. for 8 days to 25° C./60% RH. […] Sampling time for condition […], and 24 h Sampling time for ib): 8 h, 12 h, 48 h, and 96 h Sampling time for condition ii): 5 days (at the end of storage in 2-8° C. stability chamber), 5 days and 8 h, and 5 days and 12 h Sampling time for condition iii): 8 days (at the end of storage in 2-8° C. stability chamber), 8 days and 8 h, and 8 days and 12 h Sample Analysis: Samples were analyzed by HPLC using a validated method (validation protocol not shown). […] The % Initial (initial concentration) of each stored sample was determined per the equation below: […]
# [3] = iloprost infusion; ratio x:1; cited from earlier work
# severe frostbite [4] = conditions: cited from earlier work
# [5] = Cauchy 2011, iloprost alone and iloprost+tPA combined (n=177)
structure (smiles),measurement,setting,value
"CC#CCC(C)[C@H](O)/C=C/[C@@H]1[C@H]2C/C(=C/CCCC(=O)O)C[C@H]2C[C@H]1O (stereo partly drawn) [iloprost, (5E)-5-[(3aS,4R,5R,6aS)-5-hydroxy-4-[(E,3S)-3-hydroxy-4-methyloct-1-en-6-ynyl]-3,3a,4,5,6,6a-hexahydro-1H-pentalen-2-ylidene]pentanoic acid]","odds ratio (OR) of digit amputation, iloprost+tPA patients of Cauchy 2011 added","severe frostbite [1]; iloprost alone and iloprost plus tPA vs SoC, 95% CI: 0.001, 1.12, p=0.057, FIG. 4",0.034
same,"odds ratio (OR) of digit amputation, base-case","severe frostbite [1]; iloprost alone vs SoC, 2 studies meta-analyzed, 95% CI: 0.002-0.966, p=0.047, FIG. 3",0.047
same,"proportion of patients with amputation, pooled arm-level data","severe frostbite [1]; meta-analysis, random effects, 95% CI: 0-45%, FIG. 2",15%
same,"advantage for iloprost over SoC (reduction in amputation), base-case","severe frostbite [1]; studies with severe frostbite, no alprostadil, 95% CI: 6-73%, p=0.02",39%
same,% initial results for all of the IV bag preparations (range),[2],94.2-94.9%
same,ratio of antiaggregatory:vasodilatory potency in vivo,[3],2-7
same,Amputation Rate: patients considered likely to receive amputation,"severe frostbite [4]; Cauchy 2011, open label RCT, severe (grades 3 or 4) frostbite, with SoC after rewarming, radiotracer anomaly in technetium scintigraphy after 8 days of treatment",0 patients
same,digits with amputation,"severe frostbite [4]; Cauchy 2011, Grade 3/4 frostbite, iloprost alone",zero out of 78
same,digit amputations,severe frostbite [4]; [5],1.3%
same,number of digit amputations,severe frostbite [4]; [5],3
same,digits with amputation,"severe frostbite [4]; Crooks 2022, Grade 3-4 frostbite, minority of iloprost patients also received tPA (5 of 26)",31.1%
same,patients with amputation,"severe frostbite [4]; Poole 2021, iloprost plus SoC, with or without alteplase and heparin",33%
same,safety events associated with iloprost,"severe frostbite [4]; three iloprost frostbite studies, headache, flushing, palpitations/tachycardia, nausea and vomiting",generally mild
